Assay results as given in patent publication US20090137565A1, “Method for treatment of movement disorders” (The Trustees of Columbia University in the City of New York, priority 2004, published 2009).

Tests used:
[1] = Single-patient GHB trial: tolerability / adverse events; assay type: in vivo, human
Description: All office visits and the UMRS scale were performed by the supervisory physician. The patient came to the office for five visits, each separated by two weeks (time 0, 2 weeks, 4 weeks, 6 weeks and 8 weeks). At each visit, the physician examined the patient, and inquired about any adverse events. The physician performed the UMRS while the patient was videotaped. Xyrem® was dispensed by the physician at each visit.
At the initial visit the UMRS was performed and videotaped, 1 gm of GHB was administered by mouth, and they were monitored in the office for one hour. They then took 1 gm twice daily for two weeks, at which time they returned to the office. One hour after receiving 2 grams of GHB, the UMRS was performed and videotaped and for the next two weeks they took 2 grams twice daily. Two weeks later, the UMRS was performed and videotaped one hour after receiving 3 grams of GHB, and after two weeks of 3 grams twice daily, the same procedure was performed after receiving 4 grams in the office. After taking 4 grams twice daily for two weeks, they returned for UMRS videotaping, and the decision was made to continue the target dose of 4 gm twice daily.
The clinical trial was designed with a very slow titration schedule, in order to prevent possible side effects such as sedation, worsening of ataxia or orthostasis. Like most forms of myoclonus, posthypoxic myoclonus disappears during sleep and it is therefore necessary to administer the drug during waking hours in order to observe its effects.

[2] = test system: ethanol-responsive essential tremor; assay: Five-patient open-label trial of sodium oxybate, blinded WHIGET tremor rating (patients #4, 5); assay type: in vivo, human; settings: for WHIGET TOTAL SUSTENTION score: range 0-6; for Rx effect, WHIGET TOTAL ACTION (improvement in tremor): listed as sodium oxybate, monosodium salt
Description: Five patients were enrolled in a trial from the Movement Disorders Division of Columbia University Medical Center during the fall of 2004. All patients were afflicted with hyperkinetic movement disorders that responded to ethanol (defined as a noticeable change to the patient), and all were refractory to treatment with conventional medications or could not tolerate them. The Medical Center's Institutional Review Board approved the trial, and written and verbal informed consent were obtained from all patients prior to enrollment.
The dose and timing of all other drugs were kept constant throughout the trial, and patients were not withdrawn from other medications. Patients #1-3 were examined and videotaped using the Unified Myoclonus Rating Scale (UMRS), and patients #4 and 5 were examined and videotaped using the Washington Heights Inwood Tremor Rating Scale (WHIGET) (see Appendix I). Frucht S. J., et al. Adv Neurol 89:361-76 (2002); Louis, E. D., et al. Mov Disord 16:89-93 (2001).
Side effects were defined as either minor or serious (leading to hospitalization) using good clinical practice standards (www.who.int/medicines/library/par/ggcp/GCPGuidePharmatrials), and patients were asked to report side effects at each visit. After initial examination and videotaping, patients were given 1 gm of sodium oxybate by mouth (2 ml of the standard 0.5 gm/ml solution dissolved in 60 ml of water). One hour later, the senior author repeated the examination and videotaping. […] After two weeks taking 2 gm twice daily, the procedure was repeated after a 3 gm office dose, and finally two weeks after receiving 3 gm twice daily, the procedure was repeated after a 4 gm office dose. The maximum dose allowed in the trial was 4 gm twice daily. Patients and the senior author determined at each visit whether or not to proceed to the next dose level, based principally on their ability to tolerate the most recent dose regimen. After deciding on a maximum tolerated dose, patients received a dose in the office 0.5 gm less and the examination was videotaped.
The entire videotape segments and patient-writing samples from each visit were copied, and were blinded to trial order and identifying features, and were randomly ordered for review using a random number table. A movement disorder expert blinded to trial design and dose schedule, scored each videotape. Sub-scores for each visit were calculated as described previously. Frucht S. J., et al. Adv Neurol 89:361-76 (2002). We modified section 5 of the UMRS in which functional performance (pouring water, using a soup spoon) is performed only with the dominant arm (section V). […] This increased the maximum score of section 5 of the UMRS from 20 to 28.

[3] = test system: medication-refractory hyperkinetic movements; assay: Twenty-patient trial: clinical course (onset, wear-off, continuation); assay type: in vivo, human; settings: noted by most patients at higher doses
Description: Twelve men and 8 women enrolled. Results from patients #6, and #s 1, 2, 7, 12, and 13 were reported previously. Frucht, S. J., et al. Mov Disord 20:745-51 (2005); Frucht, S. J., et al. Mov Disord 20:1330-7 (2005). Mean age/symptom duration was 43.9 yrs/12.3 yrs (myoclonus) and 71.2 yrs/26.7 yrs (ET). Patients with myoclonus were examined and videotaped at each visit using the Unified Myoclonus Rating Scale (UMRS), and patients with ET were examined and videotaped using the modified Washington Heights Inwood Genetic Essential Tremor Rating Scale (WHIGET; Appendix 1). Frucht, S. J., et al. Mov Disord 20:1330-7 (2005). After initial baseline examination and videotaping, patients took 1 gm of sodium oxybate by mouth (2 ml of the standard 0.5 gm/ml solution dissolved in 60 ml of water), and one hour later the videotaped examination was repeated. Patients were maintained on a dose of 1 gm T.I.D. (taken before meals) until their next office visit two weeks later, when the examination and videotaping were repeated one hour after receiving 1.5 gm of sodium oxybate. Subsequent visits and dose titrations at two-week intervals were repeated until the maximum dose was reached (3 gm T.I.D), patients were satisfied with the results of treatment, or until they developed side effects that they viewed as troublesome. […]

[4] = test system: NREM and REM sleep; settings: about 30-60 mg/kg doses, healthy human volunteers; cited from earlier work

O=C([O-])CCCO.[Na+] [GHB, 4-hydroxybutanoic acid monosodium salt]
adverse effect reported by patient ([1]; after the first 1 gm dose): slight dizziness | tolerability ([1]; divided doses during the day): well tolerated | sedation ([1]; two daytime doses of 4 gm, concurrent clonazepam and levetiracetam): without significant sedation | WHIGET TOTAL ACTION score ([2]; patient 4, 1 gm, range 0-40, 0 gm score 19.5): 10 | WHIGET TOTAL SUSTENTION score ([2]; patient 4, 1.5 gm, 0 gm score 2.5): 0.5 | WHIGET TOTAL ACTION score ([2]; patient 4, 1.5 gm, range 0-40, 0 gm score 19.5): 4 | WHIGET TOTAL SUSTENTION score ([2]; patient 4, 2 gm, 0 gm score 2.5): 0 | WHIGET TOTAL ACTION score ([2]; patient 4, 2 gm, range 0-40, 0 gm score 19.5): 5 | Rx effect, WHIGET TOTAL ACTION (improvement in tremor) ([2]; patient 4): 79% | WHIGET TOTAL ACTION score ([2]; patient 5, 1 gm, 0 gm score 23): 19 | WHIGET TOTAL ACTION score ([2]; patient 5, 1.5 gm, 0 gm score 23): 13.5 | WHIGET TOTAL SUSTENTION score ([2]; patient 5, 1.5 gm, 0 gm score 4): 2.5 | WHIGET TOTAL ACTION score ([2]; patient 5, 2 gm, 0 gm score 23): 12 | WHIGET TOTAL SUSTENTION score ([2]; patient 5, 2 gm, 0 gm score 4): 3 | Rx effect, WHIGET TOTAL ACTION (improvement in tremor) ([2]; patient 5): 48% | Blinded rating of the severity of torticollis ([2]; patient #4, 1 gm twice-daily dose, before: moderate): mild | kinetic tremor amplitude ([2]; patient #4, after 2 gm): markedly diminished | kinetic tremor amplitude ([2]; patient #5, after 2 gm): the amplitude has diminished | wear-off of benefit [3]: four to five hours | duration of normal sequence of NREM and REM sleep [4]: 2 to 3 h
